# Laboratory results published in PubChem BioAssay AID330 (DTP/NCI, 2004).
# Several values for one entry are separate records, joined by “and”; a condition that tells them apart may be missing. Equal entries are not always repeated. Inconclusive results and toxic doses are left out.
# Test system: P388 leukemia ip, CD2F1 mice, survival T/C
# Assay: NCI In Vivo Anticancer Drug Screen. Data for tumor model P388 Leukemia (intraperitoneal) in CD2F1 (CDF1) mice
# Conditions: endpoint: median survival time, higher = longer survival
# In short: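 Mice carrying the transplanted tumor received test compound or vehicle. Survival was recorded in each group, and the value is the treated-group measurement divided by that of the vehicle-treated control group.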
# [1] = dose: 12.5 mg/kg/injection, schedule: Q01DX005 (ip), vehicle: saline
# [2] = dose: 25.0 mg/kg/injection, schedule: Q01DX005 (ip), vehicle: saline
# [3] = dose: 50.0 mg/kg/injection, schedule: Q01DX005 (ip), vehicle: Klucel (hydroxypropylcellulose) (HPC)
# [4] = dose: 50.0 mg/kg/injection, schedule: Q01DX005 (ip), vehicle: saline
# [5] = dose: 100.0 mg/kg/injection, schedule: Q01DX005 (ip), vehicle: Klucel (hydroxypropylcellulose) (HPC)
# [6] = dose: 100.0 mg/kg/injection, schedule: Q01DX005 (ip), vehicle: saline
# [7] = dose: 200.0 mg/kg/injection, schedule: Q01DX005 (ip), vehicle: saline
# [8] = dose: 50.0 mg/kg/injection, schedule: Q01DX009 (ip), vehicle: saline with Tween-80
# [9] = dose: 50.0 mg/kg/injection, schedule: Q01DX009 (ip), vehicle: saline
# [10] = dose: 100.0 mg/kg/injection, schedule: Q01DX009 (ip), vehicle: saline
structure (smiles),measurement,setting,value
C1CCC2C(C1)CCC1COCN12 (stereo not drawn),T/C,"dose: 12.5 mg/kg/injection, schedule: Q01DX005 (ip), vehicle: Klucel (hydroxypropylcellulose) (HPC)",98 % of control
same,T/C,[1],108 % of control
same,T/C,"dose: 25.0 mg/kg/injection, schedule: Q01DX005 (ip), vehicle: Klucel (hydroxypropylcellulose) (HPC)",100 % of control
same,T/C,[2],100 % of control
same,T/C,[3],105 % of control
same,T/C,[4],103 % of control and 119 % of control
same,T/C,[5],114 % of control
same,T/C,[6],118 % of control and 124 % of control
same,T/C,[7],101 % of control
CCCCCCCCCC(O)CCCCCC (stereo not drawn),T/C,"dose: 88.0 mg/kg/injection, schedule: Q01DX009 (ip), vehicle: other",109 % of control
same,T/C,"dose: 132.0 mg/kg/injection, schedule: Q01DX009 (ip), vehicle: other",109 % of control
same,T/C,"dose: 200.0 mg/kg/injection, schedule: Q01DX009 (ip), vehicle: other",118 % of control
Cc1c2ccccc2c(C)c2c1ccc1ccccc12,T/C,"dose: 3.13 mg/kg/injection, schedule: Q01DX009 (ip), vehicle: saline with Tween-80",167 % of control
same,T/C,"dose: 4.0 mg/kg/injection, schedule: Q01DX009 (ip), vehicle: saline with Tween-80",163 % of control
same,T/C,"dose: 6.2 mg/kg/injection, schedule: Q01DX009 (ip), vehicle: saline with Tween-80",163 % of control
same,T/C,"dose: 6.25 mg/kg/injection, schedule: Q01DX009 (ip), vehicle: saline with Tween-80",180 % of control and 184 % of control
same,T/C,"dose: 9.3 mg/kg/injection, schedule: Q01DX009 (ip), vehicle: saline with Tween-80",109 % of control
same,T/C,"dose: 12.5 mg/kg/injection, schedule: Q01DX009 (ip), vehicle: saline with Tween-80",175 % of control
same,T/C,"dose: 12.5 mg/kg/injection, schedule: Q04DX003 (ip), vehicle: other",104 % of control
same,T/C,"dose: 25.0 mg/kg/injection, schedule: Q01DX009 (ip), vehicle: saline with Tween-80",98 % of control and 100 % of control and 116 % of control
same,T/C,"dose: 25.0 mg/kg/injection, schedule: Q04DX003 (ip), vehicle: other",116 % of control
same,T/C,[8],100 % of control
same,T/C,"dose: 50.0 mg/kg/injection, schedule: Q04DX003 (ip), vehicle: other",116 % of control
same,T/C,"dose: 100.0 mg/kg/injection, schedule: Q04DX003 (ip), vehicle: other",111 % of control
COc1cccc2c1C(=O)c1c(O)c3c(c(O)c1C2=O)C[C@@](O)(/C(C)=N/NC(=O)c1ccc(O)cc1)C[C@@H]3OC1CC(N)C(O)C(C)O1 (stereo partly drawn),T/C,"dose: 0.12 mg/kg/injection, schedule: Q01DX009 (ip), vehicle: water",115 % of control
same,T/C,"dose: 0.25 mg/kg/injection, schedule: Q01DX009 (ip), vehicle: water",111 % of control
same,T/C,"dose: 0.5 mg/kg/injection, schedule: Q01DX009 (ip), vehicle: water",152 % of control and 157 % of control
same,T/C,"dose: 1.0 mg/kg/injection, schedule: Q01DX009 (ip), vehicle: water",160 % of control
same,T/C,"dose: 2.0 mg/kg/injection, schedule: Q01DX009 (ip), vehicle: water",160 % of control and 180 % of control
same,T/C,"dose: 4.0 mg/kg/injection, schedule: Q01DX009 (ip), vehicle: water",161 % of control and 171 % of control
same,T/C,"dose: 10.0 mg/kg/injection, schedule: Q01DX001 (ip), vehicle: water",174 % of control
same,T/C,"dose: 16.0 mg/kg/injection, schedule: Q01DX009 (ip), vehicle: water",111 % of control
same,T/C,"dose: 20.0 mg/kg/injection, schedule: Q01DX001 (ip), vehicle: water",117 % of control
CCOC(=O)Cc1ccc2c(c1)sc1nc(-c3ccc(OC)cc3)cn12,T/C,"dose: 50.0 mg/kg/injection, schedule: Q01DX009 (ip), vehicle: DMSO",104 % of control
same,T/C,"dose: 100.0 mg/kg/injection, schedule: Q01DX009 (ip), vehicle: DMSO",103 % of control
same,T/C,"dose: 200.0 mg/kg/injection, schedule: Q01DX009 (ip), vehicle: DMSO",94 % of control
CC/C(=C(/O)c1ccccc1)c1nc2ccc(Cl)cc2[nH]c1=O,T/C,"dose: 60.0 mg/kg/injection, schedule: Q01DX005 (ip), vehicle: Klucel + Tween-80",100 % of control
same,T/C,"dose: 120.0 mg/kg/injection, schedule: Q01DX005 (ip), vehicle: Klucel + Tween-80",93 % of control
same,T/C,"dose: 240.0 mg/kg/injection, schedule: Q01DX005 (ip), vehicle: Klucel + Tween-80",98 % of control
CCCCCC(CN(C)C)C(=O)/C=C/c1ccc(Br)cc1 (stereo not drawn),T/C,"dose: 6.25 mg/kg/injection, schedule: Q01DX005 (ip), vehicle: saline",100 % of control
same,T/C,[1],110 % of control
same,T/C,[2],107 % of control
same,T/C,[4],102 % of control
OCCN1CCSC1=S,T/C,[8],95 % of control
same,T/C,"dose: 100.0 mg/kg/injection, schedule: Q01DX009 (ip), vehicle: saline with Tween-80",90 % of control
same,T/C,"dose: 200.0 mg/kg/injection, schedule: Q01DX009 (ip), vehicle: saline with Tween-80",100 % of control
CC(=O)C(N)CC(C)C (stereo not drawn),T/C,[4],98 % of control
same,T/C,[6],100 % of control
same,T/C,[7],107 % of control
Nc1nc2ncc(CNc3ccc(C(=O)NC(CCC(=O)O)C(=O)O)cc3)nc2c(=O)[nH]1 (stereo not drawn),T/C,"dose: 6.25 mg/kg/injection, schedule: Q01DX009 (ip), vehicle: saline",103 % of control
same,T/C,"dose: 12.5 mg/kg/injection, schedule: Q01DX009 (ip), vehicle: saline",99 % of control and 98 % of control
same,T/C,"dose: 25.0 mg/kg/injection, schedule: Q01DX009 (ip), vehicle: saline",99 % of control and 96 % of control
same,T/C,"dose: 45.0 mg/kg/injection, schedule: Q04DX003 (ip), vehicle: saline",103 % of control
same,T/C,[8],108 % of control
same,T/C,[9],101 % of control and 103 % of control
same,T/C,"dose: 90.0 mg/kg/injection, schedule: Q04DX003 (ip), vehicle: saline",61 % of control
same,T/C,[10],98 % of control
same,T/C,"dose: 180.0 mg/kg/injection, schedule: Q04DX003 (ip), vehicle: saline",40 % of control
O=[N+]([O-])c1ccc(/C=C/C=C/c2ccc(Cl)c(S(=O)(=O)F)c2)c(Cl)c1,T/C,"dose: 100.0 mg/kg/injection, schedule: Q01DX009 (ip), vehicle: saline sonified",95 % of control
same,T/C,"dose: 200.0 mg/kg/injection, schedule: Q01DX009 (ip), vehicle: saline sonified",95 % of control
same,T/C,"dose: 400.0 mg/kg/injection, schedule: Q01DX009 (ip), vehicle: saline sonified",91 % of control
CCOC(=O)COc1cc2c(cc1C(C)c1ccc(OCC)cc1)OCO2 (stereo not drawn),T/C,[3],93 % of control
same,T/C,[5],93 % of control
same,T/C,"dose: 200.0 mg/kg/injection, schedule: Q01DX005 (ip), vehicle: Klucel (hydroxypropylcellulose) (HPC)",88 % of control
COc1cc2c(cc1OC)C(C#N)N(C(=O)c1ccccc1)C=C2 (stereo not drawn),T/C,"dose: 0.1 mg/kg/injection, schedule: Q01DX009 (ip), vehicle: water",98 % of control
same,T/C,"dose: 0.19 mg/kg/injection, schedule: Q01DX009 (ip), vehicle: water",100 % of control
same,T/C,"dose: 0.38 mg/kg/injection, schedule: Q01DX009 (ip), vehicle: water",98 % of control
same,T/C,"dose: 0.75 mg/kg/injection, schedule: Q01DX009 (ip), vehicle: water",100 % of control
same,T/C,"dose: 1.5 mg/kg/injection, schedule: Q01DX009 (ip), vehicle: water",100 % of control
ON(C=Nc1ccccc1)c1ccccc1,T/C,[9],101 % of control
same,T/C,[10],101 % of control
same,T/C,"dose: 200.0 mg/kg/injection, schedule: Q01DX009 (ip), vehicle: saline",97 % of control
N#Cc1ccc(N2C(=O)c3ccc(C(O)(C(F)(F)F)C(F)(F)F)cc3C2=O)cc1C#N,T/C,"dose: 50.0 mg/kg/injection, schedule: Q01DX009 (ip), vehicle: Klucel (hydroxypropylcellulose) (HPC)",103 % of control
same,T/C,"dose: 100.0 mg/kg/injection, schedule: Q01DX009 (ip), vehicle: Klucel (hydroxypropylcellulose) (HPC)",103 % of control
same,T/C,"dose: 200.0 mg/kg/injection, schedule: Q01DX009 (ip), vehicle: Klucel (hydroxypropylcellulose) (HPC)",99 % of control
CP1(C)=NP(C)(C)=NP(C)(C)=NP(C)(C)=N1.[Cl][Pt]([Cl])([Cl])[Cl],T/C,"dose: 6.25 mg/kg/injection, schedule: Q04DX003 (ip), vehicle: saline with Tween-80",106 % of control
same,T/C,"dose: 12.5 mg/kg/injection, schedule: Q04DX003 (ip), vehicle: saline with Tween-80",106 % of control and 107 % of control
same,T/C,"dose: 25.0 mg/kg/injection, schedule: Q04DX003 (ip), vehicle: saline with Tween-80",110 % of control
same,T/C,"dose: 50.0 mg/kg/injection, schedule: Q04DX003 (ip), vehicle: saline with Tween-80",120 % of control and 122 % of control
same,T/C,"dose: 100.0 mg/kg/injection, schedule: Q04DX003 (ip), vehicle: saline with Tween-80",118 % of control
C/C=C/c1cccc(OC)c1OC,T/C,"dose: 100.0 mg/kg/injection, schedule: Q01DX001 (ip), vehicle: saline with Tween-80",108 % of control
same,T/C,"dose: 200.0 mg/kg/injection, schedule: Q01DX001 (ip), vehicle: saline with Tween-80",120 % of control
same,T/C,"dose: 400.0 mg/kg/injection, schedule: Q01DX001 (ip), vehicle: saline with Tween-80",110 % of control
